Assay results from PMC6914219 (European journal of pharmacology, 2019).

Tested on: Caco-2 monolayers

lucifer yellow showed a Papp of under 1e+12 ×10⁻⁶ cm/s.
